≈ marks a conversion by molar mass, not a printed value.
Assays:
[1] = cited from earlier work
[2] = solubility of ITI-007 free base in solvents; assay type: physicochemical
[3] = preliminary screen of dispersions by XRPD and appearance; assay type: physicochemical; conditions: XRPD, as generated by lyophilization; ITI-007 free base/excipient
Procedure: X-ray powder diffraction (XRPD): The X-ray powder diffraction studies are performed using a PANalytical X'Pert PRO MPD diffractometer using an incident beam of Cu radiation produced using an Optix long, fine-focus source. An elliptically graded multilayer mirror is used to focus Cu Kα X-ray radiation through the specimen and onto the detector. Prior to analysis, a silicon specimen is analyzed to verify the observed position of the Si (111) peak (consistent with the NIST-certified position, NIST SM 640e). A specimen of the sample is sandwiched between 3-micron thick films and analyzed in transmission geometry. A beam-stop, short antiscatter extension, and antiscatter knife edge is used to minimize the background generated by the air. Soller slits for the incident and diffracted beams are used to minimize broadening from axial divergence. Diffraction patterns are collected using a scanning position-sensitive detector (X'Celerator) located 240 mm from the specimen.

[4] = mDSC glass transition of dispersions; assay type: physicochemical; conditions: single glass transition above 75° C., Yes/No
[5] = chemical stability of ITI-007 by HPLC over the seven-day study; assay type: physicochemical; conditions: 7 days at 40° C./75% RH, normalized to content before the study
[6] = target: H1 histaminergic receptors (Homo sapiens, UniProt P35367); conditions: cited from earlier work
Chain of H1 histaminergic receptors (P35367 whole entry): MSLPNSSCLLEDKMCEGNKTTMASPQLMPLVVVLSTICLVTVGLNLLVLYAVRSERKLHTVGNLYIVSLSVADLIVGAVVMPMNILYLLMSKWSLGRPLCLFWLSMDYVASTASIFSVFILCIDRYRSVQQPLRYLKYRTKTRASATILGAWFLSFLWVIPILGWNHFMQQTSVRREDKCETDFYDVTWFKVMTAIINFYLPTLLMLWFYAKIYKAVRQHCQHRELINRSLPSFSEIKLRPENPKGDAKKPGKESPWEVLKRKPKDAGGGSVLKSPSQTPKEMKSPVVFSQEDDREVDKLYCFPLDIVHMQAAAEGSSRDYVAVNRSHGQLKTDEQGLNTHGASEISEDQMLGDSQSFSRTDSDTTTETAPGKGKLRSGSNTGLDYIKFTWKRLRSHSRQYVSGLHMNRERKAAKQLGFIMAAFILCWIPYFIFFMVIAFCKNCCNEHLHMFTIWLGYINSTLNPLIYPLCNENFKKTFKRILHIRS

5-HT2C receptors = target: T1, 5-HT2C receptors (Homo sapiens, UniProt P28335); conditions: cited from earlier work
T1 sequence (P28335 33-458): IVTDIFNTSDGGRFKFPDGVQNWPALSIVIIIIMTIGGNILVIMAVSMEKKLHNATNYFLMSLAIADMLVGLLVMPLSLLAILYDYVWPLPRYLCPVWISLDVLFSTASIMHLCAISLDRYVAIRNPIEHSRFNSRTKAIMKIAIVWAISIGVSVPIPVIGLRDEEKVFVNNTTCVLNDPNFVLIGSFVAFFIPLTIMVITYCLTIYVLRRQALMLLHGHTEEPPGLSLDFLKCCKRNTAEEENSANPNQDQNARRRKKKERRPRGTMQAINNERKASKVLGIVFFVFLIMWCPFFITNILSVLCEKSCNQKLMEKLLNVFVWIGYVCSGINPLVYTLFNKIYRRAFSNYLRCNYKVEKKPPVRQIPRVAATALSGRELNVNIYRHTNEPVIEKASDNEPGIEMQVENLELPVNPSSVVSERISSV

muscarinic receptors = conditions: cited from earlier work
[7] = salt of U.S. Pat. No. 7,183,282

solubility ([2]; 2,2,2-trifluoroethanol (TFE), organic solvent or mixture)	solubility ([2]; acetone, organic solvent or mixture)	solubility ([2]; dioxane, organic solvent or mixture)	solubility ([2]; ethanol, organic solvent or mixture)	solubility ([2]; methanol, organic solvent or mixture)	solubility ([2]; tert-butanol/water mixtures, aqueous with cosolvent or surfactant or cyclodextrin)	X-ray Amorphous Solids? [3]	Tg > 75° C. [4]	% ITI-007 change by HPLC [5]	Compound	hygroscopicity [1, 7]	stability [1, 7]	stability in solution ([2]; solutions in TFE)	binding [6]	binding (5-HT2C receptors)	binding (muscarinic receptors)	solubility in water ([1]; free base form)
–	–	–	–	–	–	–	–	–	CN1CCN2c3c(cccc31)C1CN(CCCC(=O)c3ccc(F)cc3)CCC12.Cl (stereo not shown) [hydrochloride salt form of ITI-007]	hygroscopic	poor stability	–	–	–	–	–
> 50 mg/mL	> 50 mg/mL	> 50 mg/mL	> 50 mg/mL	> 50 mg/mL	5 to 50 mg/mL (≈ 12.7 to 127 mM)	No	No	−5.97%	CN1CCN2c3c(cccc31)[C@@H]1CN(CCCC(=O)c3ccc(F)cc3)CC[C@@H]12 [ITI-007, 1-(4-fluoro-phenyl)-4-((6bR,10aS)-3-methyl-2,3,6b,9,10,10a-hexahydro-1H,7H-pyrido[3′,4′:4,5]pyrrolo[1,2,3-de]quinoxalin-8-yl)-butan-1-one]	–	–	rapidly discolor due to decomposition of the active	negligible binding	negligible binding	negligible binding	poor solubility in water
